Reference: patent publication US10464922B2, “Metalloenzyme inhibitor compounds” (NQP 1598 LTD., priority 2015, dated 2019)
Values after ≈ are worked out from the molar mass of the structure shown.

Experiments:
A. fumigatus = A. fumigatus MIC at 100% growth inhibition (CLSI M38-A2); assay type: cell-based, Aspergillus fumigatus; settings: 100% growth inhibition, range tested 8-0.0078 μg/mL, values given as ranges; for MIC: Aspergillus fumigatus, read-out: Aspergillus fumigatus MIC
Experimental: A. fumigatus MICs were determined at 100% growth inhibition following CLSI guidelines at a concentration range of 8-0.0078 μg/mL (CLSI M38-A2).

C. albicans (ATCC 90028) = assay: Minimum inhibitory concentration, in vitro broth microdilution assay (CLSI M27-A2); assay type: cell-based, Candida albicans; settings: ATCC 90028, about 50% growth reduction, 2 days at 36° C., range tested 8-0.0078 μg/mL, values given as ranges; for MIC: Candida albicans, ATCC90028, 48 h, read-out: Candida albicans MIC
Summary of the method: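 Inoculum of 1×10^3 to 1×10^4 CFU/mL in RPMI-1640+MOPS, exposed to 11 two-fold serial compound concentrations at 2 percent final DMSO, per CLSI M27-A2. After 2 days at 36° C, wells scored visually for growth to give MIC; tested in duplicate.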

Row | Compound | MIC (A. fumigatus) | MIC (C. albicans (ATCC 90028)) | Aspergillus fumigatus MIC (A. fumigatus) | Candida albicans MIC (C. albicans (ATCC 90028))
1 | CC(C)(C)C(O)c1ccc(N2CCN(c3ccc(-c4ccc(C(F)(F)[C@](O)(Cn5cnnn5)c5ccc(F)cc5F)nc4)cc3)CC2)cc1 (stereo partly drawn) [Example 43, 1-(4-(4-(4-(6-((R)-2-(2,4-difluorophenyl)-1,1-difluoro-2-hydroxy-3-(1H-tetrazol-1-yl)propyl)pyridin-3-yl)phenyl)piperazin-1-yl)phenyl)-2,2-dimethylpropan-1-ol] | 0.25 to 1 µg/mL (≈ 0.37 to 1.48 µM) | 0.0078 to 0.01 µg/mL (≈ 0.0115 to 0.0148 µM) | – | –
2 | CCC(C(C)O)n1ccn(-c2ccc(N3CCN(c4ccc(-c5ccc(C(F)(F)[C@](O)(Cn6cnnn6)c6ccc(F)cc6F)nc5)cc4)CC3)cc2)c1=O (stereo partly drawn) [Example 97, 1-(4-(4-(4-(6-((R)-2-(2,4-difluorophenyl)-1,1-difluoro-2-hydroxy-3-(1H-tetrazol-1-yl)propyl)pyridin-3-yl)phenyl)piperazin-1-yl)phenyl)-3-(2-hydroxypentan-3-yl)-1,3-dihydro-2H-imidazol-2-one] | 0.25 to 1 µg/mL (≈ 0.33 to 1.32 µM) | 0.0078 to 0.01 µg/mL (≈ 0.0103 to 0.0132 µM) | – | –
3 | CC(O)C(C)n1ncn(-c2ccc(N3CCN(c4ccc(-c5ccc(C(F)(F)[C@](O)(Cn6cnnn6)c6ccc(F)cc6F)nc5)cc4)CC3)cc2)c1=O (stereo partly drawn) [Example 75, 4-(4-(4-(4-(6-((R)-2-(2,4-difluorophenyl)-1,1-difluoro-2-hydroxy-3-(1H-tetrazol-1-yl)propyl)pyridin-3-yl)phenyl)piperazin-1-yl)phenyl)-2-(3-hydroxybutan-2-yl)-2,4-dihydro-3H-1,2,4-triazol-3-one] | 0.062 to 0.25 µg/mL (≈ 0.0832 to 0.336 µM) | 0.0078 to 0.01 µg/mL (≈ 0.0105 to 0.0134 µM) | – | –
4 | N#Cc1ccc(N2CCN(c3ccc(-c4ccc(C(F)(F)[C@](O)(Cn5cnnn5)c5ccc(F)cc5F)nc4)cc3F)CC2)c(F)c1 [Example 9, (R)-4-(4-(4-(6-(2-(2,4-difluorophenyl)-1,1-difluoro-2-hydroxy-3-(1H-tetrazol-1-yl)propyl)pyridin-3-yl)-2-fluorophenyl)piperazin-1-yl)-3-fluorobenzonitrile] | > 8 µg/mL | 0.0078 to 0.01 µg/mL (≈ 0.012 to 0.0154 µM) | – | –
5 | OC(c1cn(-c2ccc(N3CCN(c4ccc(-c5ccc(C(F)(F)C(O)(Cn6cnnn6)c6ccccc6F)nc5)cc4)CC3)cn2)nn1)C(F)(F)F (single isomer, unassigned; (+)) [110(+), (+)-1,1-difluoro-2-(2-fluorophenyl)-3-(1H-tetrazol-1-yl)-1-(5-(4-(4-(6-(4-(2,2,2-trifluoro-1-hydroxyethyl)-1H-1,2,3-triazol-1-yl)pyridin-3-yl)piperazin-1-yl)phenyl)pyridin-2-yl) propan-2-ol] | – | – | 0.25 to 1.0 µg/mL | ≤0.0078 to 0.010 µg/mL
6 | N#Cc1ccc2nc(N3CCN(c4ccc(-c5ccc(C(F)(F)[C@](O)(Cn6cnnn6)c6ccc(F)cc6F)nc5)cc4)CC3)sc2c1 [Example 73, (R)-2-(4-(4-(6-(2-(2,4-difluorophenyl)-1,1-difluoro-2-hydroxy-3-(1H-tetrazol-1-yl)propyl)pyridin-3-yl)phenyl)piperazin-1-yl) benzo [d] thiazole-6-carbonitrile] | > 8 µg/mL | 0.0078 to 0.01 µg/mL (≈ 0.0116 to 0.0149 µM) | – | –
7 | CCC(C)C(O)c1ccc(N2CCN(c3ccc(-c4ccc(C(F)(F)[C@](O)(Cn5cnnn5)c5ccc(F)cc5F)nc4)cc3)CC2)cc1 (stereo partly drawn) [Example 59, 1-(4-(4-(4-(6-((R)-2-(2,4-difluorophenyl)-1,1-difluoro-2-hydroxy-3-(1H-tetrazol-1-yl)propyl)pyridin-3-yl)phenyl)piperazin-1-yl)phenyl)-2-methylbutan-1-ol] | 0.25 to 1 µg/mL (≈ 0.37 to 1.48 µM) | 0.0078 to 0.01 µg/mL (≈ 0.0115 to 0.0148 µM) | – | –
8 | OC(c1ccc(N2CCN(c3ccc(-c4ccc(C(F)(F)[C@](O)(Cn5cnnc5)c5ccc(F)cc5F)nc4)cc3)CC2)cc1)C(F)(F)F (stereo partly drawn) [Example 16, (2R)-2-(2,4-difluorophenyl)-1,1-difluoro-3-(4H-1,2,4-triazol-4-yl)-1-(5-(4-(4-(4-(2,2,2-trifluoro-1-hydroxyethyl)phenyl)piperazin-1-yl)phenyl)pyridin-2-yl) propan-2-ol] | 0.25 to 1 µg/mL (≈ 0.364 to 1.46 µM) | 0.0078 to 0.01 µg/mL (≈ 0.0114 to 0.0146 µM) | – | –
9 | CCC(CC)n1ncn(-c2ccc(N3CCN(c4ccc(-c5ccc(C(F)(F)[C@](O)(Cn6cnnn6)c6ccc(F)cc6F)nc5)cc4)CC3)cc2)c1=O [Example 66, (R)-4-(4-(4-(4-(6-(2-(2,4-difluorophenyl)-1,1-difluoro-2-hydroxy-3-(1H-tetrazol-1-yl)propyl)pyridin-3-yl)phenyl)piperazin-1-yl)phenyl)-2-(pentan-3-yl)-2,4-dihydro-3H-1,2,4-triazol-3-one] | 0.25 to 1 µg/mL (≈ 0.337 to 1.35 µM) | 0.0078 to 0.01 µg/mL (≈ 0.0105 to 0.0135 µM) | – | –
10 | OC(CC(F)(F)F)c1ccc(N2CCN(c3ccc(-c4ccc(C(F)(F)[C@](O)(Cn5cnnn5)c5ccc(F)cc5)nc4)cc3)CC2)cn1 (single isomer, unassigned; (-)) [121(−)] | – | – | >8 µg/mL | 0.10 to 1.0 µg/mL
11 | Nc1ccc(N2CCN(c3ccc(-c4ccc(C(F)(F)[C@](O)(Cn5cnnn5)c5ccc(F)cc5F)nc4)cc3)CC2)cc1 [Example 14, (R)-1-(5-(4-(4-(4-aminophenyl)piperazin-1-yl)phenyl)pyridin-2-yl)-2-(2,4-difluorophenyl)-1,1-difluoro-3-(1H-tetrazol-1-yl) propan-2-ol] | > 8 µg/mL | 0.01 to 0.1 µg/mL (≈ 0.0165 to 0.165 µM) | – | –
12 | N#Cc1ccc2nc(N3CCN(c4ccc(-c5ccc(C(F)(F)[C@](O)(Cn6cnnn6)c6ccc(F)cc6F)nc5)cc4)CC3)[nH]c2c1 [Example 74, (R)-2-(4-(4-(6-(2-(2,4-difluorophenyl)-1,1-difluoro-2-hydroxy-3-(1H-tetrazol-1-yl)propyl)pyridin-3-yl)phenyl)piperazin-1-yl)-1H-benzo [d] imidazole-6-carbonitrile] | > 8 µg/mL | 0.0078 to 0.01 µg/mL (≈ 0.0119 to 0.0153 µM) | – | –
13 | N#Cc1ccc(N2CCN(Cc3ccc(-c4ccc(C(F)(F)[C@](O)(Cn5cnnn5)c5ccc(F)cc5F)nc4)cc3)C(=O)C2)cc1 [Example 27, (R)-4-(4-(4-(6-(2-(2,4-difluorophenyl)-1,1-difluoro-2-hydroxy-3-(1H-tetrazol-1-yl)propyl)pyridin-3-yl)benzyl)-3-oxopiperazin-1-yl) benzonitrile] | > 8 µg/mL | 0.01 to 0.1 µg/mL (≈ 0.0156 to 0.156 µM) | – | –
14 | CC(C)C(C(C)O)n1ncn(-c2ccc(N3CCN(c4ccc(-c5ccc(C(F)(F)[C@](O)(Cn6cnnn6)c6ccc(F)cc6F)nc5)cc4)CC3)cc2)c1=O (stereo partly drawn) [Example 103, 4-(4-(4-(4-(6-((R)-2-(2,4-difluorophenyl)-1,1-difluoro-2-hydroxy-3-(1H-tetrazol-1-yl)propyl)pyridin-3-yl)phenyl)piperazin-1-yl)phenyl)-2-(2-hydroxy-4-methylpentan-3-yl)-2,4-dihydro-3H-1,2,4-triazol-3-one] | 0.062 to 0.25 µg/mL (≈ 0.0802 to 0.323 µM) | 0.0078 to 0.01 µg/mL (≈ 0.0101 to 0.0129 µM) | – | –
15 | CC(C)n1ccn(-c2ccc(N3CCN(c4ccc(-c5ccc(C(F)(F)[C@](O)(Cn6cnnn6)c6ccc(F)cc6F)nc5)cc4)CC3)cc2)c1=O [Example 91, 1-(4-(4-(4-(6-(2-(2,4-difluorophenyl)-1,1-difluoro-2-hydroxy-3-(1H-tetrazol-1-yl)propyl)pyridin-3-yl)phenyl)piperazin-1-yl)phenyl)-3-isopropyl-1,3-dihydro-2H-imidazol-2-one] | 0.25 to 1 µg/mL (≈ 0.35 to 1.4 µM) | 0.0078 to 0.01 µg/mL (≈ 0.0109 to 0.014 µM) | – | –
16 | CCC(C)C(O)c1ccc(N2CCN(c3ccc(-c4ccc(C(F)(F)[C@](O)(Cn5cnnn5)c5ccc(F)cc5F)nc4)cc3)CC2)cn1 (stereo partly drawn) [Example 65, 1-(5-(4-(4-(6-((R)-2-(2,4-difluorophenyl)-1,1-difluoro-2-hydroxy-3-(1H-tetrazol-1-yl)propyl)pyridin-3-yl)phenyl)piperazin-1-yl)pyridin-2-yl)-2-methylbutan-1-ol] | 0.25 to 1 µg/mL (≈ 0.369 to 1.48 µM) | 0.0078 to 0.01 µg/mL (≈ 0.0115 to 0.0148 µM) | – | –
17 | CCC(C(=O)Nc1ccc(N2CCN(c3ccc(-c4ccc(C(F)(F)[C@](O)(Cn5cnnn5)c5ccc(F)cc5F)nc4)cc3)CC2)cc1)C(C)O (stereo partly drawn) [Example 89, N-(4-(4-(4-(6-((R)-2-(2,4-difluorophenyl)-1,1-difluoro-2-hydroxy-3-(1H-tetrazol-1-yl)propyl)pyridin-3-yl)phenyl)piperazin-1-yl)phenyl)-2-ethyl-3-hydroxybutanamide] | 0.25 to 1 µg/mL (≈ 0.348 to 1.39 µM) | 0.01 to 0.1 µg/mL (≈ 0.0139 to 0.139 µM) | – | –
18 | N#Cc1ccc(CN2CCN(c3ccc(-c4ccc(C(F)(F)[C@](O)(Cn5cnnn5)c5ccc(F)cc5F)nc4)cc3)CC2)cc1 [Example 17, (R)-4-((4-(4-(6-(2-(2,4-difluorophenyl)-1,1-difluoro-2-hydroxy-3-(1H-tetrazol-1-yl)propyl)pyridin-3-yl)phenyl)piperazin-1-yl)methyl) benzonitrile] | 1 to 4 µg/mL (≈ 1.59 to 6.36 µM) | 0.0078 to 0.01 µg/mL (≈ 0.0124 to 0.0159 µM) | – | –
19 | O[C@@](Cn1cnnn1)(c1ccc(F)cc1F)C(F)(F)c1ccc(-c2ccc(N3CCN(c4ccc5nc(CC(F)(F)F)[nH]c5c4)CC3)cc2)cn1 [Example 77, (R)-2-(2,4-difluorophenyl)-1,1-difluoro-3-(1H-tetrazol-1-yl)-1-(5-(4-(4-(2-(2,2,2-trifluoroethyl)-1H-benzo [d]imidazol-6-yl)piperazin-1-yl)phenyl)pyridin-2-yl) propan-2-ol] | 0.25 to 1 µg/mL (≈ 0.351 to 1.41 µM) | 0.01 to 0.1 µg/mL (≈ 0.0141 to 0.141 µM) | – | –
20 | OC(c1cc(N2CCN(c3ccc(-c4ccc(C(F)(F)[C@](O)(Cn5cnnn5)c5ccc(F)cc5F)nc4)cc3)CC2)ccn1)C(F)(F)F (stereo partly drawn) [Example 104, (2R)-2-(2,4-difluorophenyl)-1,1-difluoro-3-(1H-tetrazol-1-yl)-1-(5-(4-(4-(2-(2,2,2-trifluoro-1-hydroxyethyl)pyridin-4-yl)piperazin-1-yl)phenyl)pyridin-2-yl)propan-2-ol] | 0.25 to 1 µg/mL (≈ 0.363 to 1.45 µM) | 0.0078 to 0.01 µg/mL (≈ 0.0113 to 0.0145 µM) | – | –
21 | CC(C)Cc1nc2ccc(N3CCN(c4ccc(-c5ccc(C(F)(F)[C@](O)(Cn6cnnn6)c6ccc(F)cc6F)nc5)cc4)CC3)cc2[nH]1 [Example 78, (R)-2-(2,4-difluorophenyl)-1,1-difluoro-1-(5-(4-(4-(2-isobutyl-1H-benzo [d]imidazol-6-yl)piperazin-1-yl)phenyl)pyridin-2-yl)-3-(1H-tetrazol-1-yl) propan-2-ol] | > 8 µg/mL | 0.01 to 0.1 µg/mL (≈ 0.0146 to 0.146 µM) | – | –
